Measurements: patent US20210113501A1, “METHOD OF ADMINISTERING BETA-HYDROXY-BETA-METHYLBUTYRATE (HMB)” (Metabolic Technologies, Inc., priority 2009, published 2021)

Assay: Study 2 blood chemistry
Format: in vivo, human
Conditions: for Aspartate Aminotransferase / Gamma-glutamyl: in U/L (unit assumed)
Description: Study 2 design. Study 2 was conducted similar to study 1 with the following modifications. In study 2, plasma levels of HMB were measured for 1440 min (24 h) and total urine collection was also performed for measurement of urinary HMB excretion during this period. After the 180 min blood sample, the subjects were allowed to leave the laboratory and were instructed to return to the laboratory for additional blood samples at 360, 720, and 1440 min after the ingestion of the supplement. As in study 1, each subject took each of the treatments with at least a one week washout period between treatments. Samples were again stored frozen at −70° C. for analysis of plasma and urinary HMB concentrations. Pre-ingestion, 180 min and 1440 min blood samples were again assayed for the same measurements already for study 1. Subjects were provided with a standardized lunch after the 180 min blood sampling and instructed to eat this at approximately 240 min post ingestion. Following the 720 min blood sample, subjects were instructed to eat a normal evening meal before 10 pm. Subjects reported back to the laboratory the following morning for the fasted 1440 min blood sample. A urine collection container was provided and subjects collected all urine produced during the experimental 24 h experimental period. The urine was stored refrigerated when not being collected. Urine volumes were measured and samples of the total urine collection were taken and stored frozen at −70° C. until analyzed for HMB.
The data were analyzed using a crossover design with Proc GLM in SAS. (45) For the timed sampling of plasma HMB a repeated measures polynomial model was used. The model included subject, order, and treatment main effects and time by treatment interaction where appropriate. For other parameters Proc GLM was also used with subject, order, and treatment main effects and the p values are reported for the treatment main effect. Statistical significance was determined for p<0.05 and a trend was determined for 0.05<p<0.10.

## CC(C)(O)CC(=O)[O-].CC(C)(O)CC(=O)[O-].[Ca+2] [CaHMB, calcium β-hydroxy-β-methylbutryate, reference compound]
After (24 h)
  A:G Ratio: 1.8 ± 0.1
  Alanine Aminotransferase: 14.9 ± 2.2 IU/L
  Albumin: 4.2 ± 0.1 g/dL
  Alkaline Phosphatase: 66.8 ± 6.9 IU/L
  Blood Urea Nitrogen: 13.4 ± 1.0 mg/dL
  CO2: 27.3 ± 0.6 mEq/L
  Chloride: 103.0 ± 0.5 mEq/L
  Cholesterol Ratio: 3.1 ± 0.2
  Creatinine: 1.0 ± 0.1 mg/dL
  Direct Bilirubin: 0.1 ± 0.04 mg/dL
  Globulin: 2.4 ± 0.1 g/dL
  Glucose: 80.3 ± 2.4 mg/dL
  HDL: 54.0 ± 3.5 mg/dL
  Iron: 59.9 ± 12.2 µg/dL
  Iron Binding Capacity: 377.5 ± 30.3 µg/dL
  Iron Saturation: 17.5 ± 4.2%
  LDL: 88.6 ± 5.9 mg/dL
  Lactate Dehydrogenase: 142.4 ± 10.5 IU/L
  Phosphorus: 4.4 ± 0.1 mg/dL
  Potassium: 4.7 ± 0.1 mEq/L
  Protein: 6.5 ± 0.2 g/dL
  Sodium: 141.4 ± 0.5 mEq/L
  Total Bilirubin: 0.5 ± 0.2 mg/dL
  Total Cholesterol: 162.9 ± 7.1 mg/dL
  Triglycerides: 106.9 ± 17.6 mg/dL
  UIBC: 317.6 ± 38.3 µg/dL
  Uric Acid: 4.2 ± 0.5 mg/dL
  Aspartate Aminotransferase: 20.0 ± 1.1
  Gamma-glutamyl: 14.3 ± 1.4
Before
  A:G Ratio: 1.9 ± 0.1
  Alanine Aminotransferase: 15.4 ± 1.8 IU/L
  Albumin: 4.1 ± 0.1 g/dL
  Alkaline Phosphatase: 65.5 ± 7.3 IU/L
  Blood Urea Nitrogen: 14.8 ± 1.4 mg/dL
  CO2: 24.9 ± 0.6 mEq/L
  Chloride: 102.4 ± 0.5 mEq/L
  Cholesterol Ratio: 3.1 ± 0.2
  Creatinine: 1.0 ± 0.1 mg/dL
  Direct Bilirubin: 0.2 ± 0.1 mg/dL
  Globulin: 2.2 ± 0.1 g/dL
  Glucose: 70.8 ± 0.8 mg/dL
  HDL: 52.3 ± 2.7 mg/dL
  Iron: 99.0 ± 20.0 µg/dL
  Iron Binding Capacity: 371.8 ± 28.6 µg/dL
  Iron Saturation: 28.4 ± 5.8%
  LDL: 88.6 ± 7.2 mg/dL
  Lactate Dehydrogenase: 161.8 ± 12.6 IU/L
  Phosphorus: 4.0 ± 0.1 mg/dL
  Potassium: 4.1 ± 0.1 mEq/L
  Protein: 6.4 ± 0.2 g/dL
  Sodium: 139.5 ± 0.8 mEq/L
  Total Bilirubin: 0.6 ± 0.1 mg/dL
  Total Cholesterol: 160.4 ± 8.0 mg/dL
  Triglycerides: 97.4 ± 12.5 mg/dL
  UIBC: 272.8 ± 39.5 µg/dL
  Uric Acid: 4.8 ± 0.3 mg/dL
  Aspartate Aminotransferase: 22.6 ± 1.4
  Gamma-glutamyl: 14.0 ± 1.9
Before to After
  A:G Ratio % Change: −3.4%
  Alanine Aminotransferase % Change: −3.3%
  Albumin % Change: 0.6%
  Alkaline Phosphatase % Change: 1.9%
  Aspartate Aminotransferase % Change: −11.6%
  Blood Urea Nitrogen % Change: −9.3%
  CO2 % Change: 9.5%
  Chloride % Change: 0.6%
  Cholesterol Ratio % Change: −0.8%
  Creatinine % Change: −1.5%
  Direct Bilirubin % Change: −37.4%
  Gamma-glutamyl % Change: 1.8%
  Globulin % Change: 6.7%
  Glucose % Change: 13.4%
  HDL % Change: 3.3%
  Iron % Change: −39.5%
  Iron Binding Capacity % Change: 1.5%
  Iron Saturation % Change: −38.3%
  LDL % Change: 0.0%
  Lactate Dehydrogenase % Change: −12.0%
  Phosphorus % Change: 10.6%
  Potassium % Change: 14.8%
  Protein % Change: 2.8%
  Sodium % Change: 1.3%
  Total Bilirubin % Change: −17.8%
  Total Cholesterol % Change: 1.6%
  Triglycerides % Change: 9.8%
  UIBC % Change: 16.5%
  Uric Acid % Change: −12.0%
